In US20230123334A1, “AMINO LIPID COMPOUND, PREPARATION METHOD THEREFOR, AND APPLICATION THEREOF” (SHENZHEN SHENXIN BIOTECHNOLOGY CO., LTD., priority 2020, published 2023):

Tests used:
Type in all cases: cell-based
[1] = tested on: embryonic stem cells (hESC2); test: Screening as mRNA vectors in embryonic stem cells; conditions: 50 ng EGFP mRNA per well
In short: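 EGFP mRNA (50 ng per well) transfected into hESC2 cells grown in mTeSR1; Lipofectamine Stem served as positive control. Read-out: GFP-fluorescent cells as percentage of total cells.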

Hela cells [2] = test: Transfection of Hela cell line, DNA vectors; conditions: 75 ng plasmid DNA, GFP cells / total cells
In short: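 Amino lipid/DOPE liposomes in sodium acetate pH 5.6 were complexed with 75 ng psin-EGFP-IRES-Puro plasmid for 30 min at room temperature, then mixed with 3-5×10^4 Hela cells in DMEM/10% FBS at 37° C. Hoechst stain after 20-24 h, imaging after a further 20-24 h. Efficiency = GFP-positive cells / total nuclei.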

HEK293 cells [3] = test: Preliminary screening as mRNA vectors, EGFP mRNA transfection of HEK293 cells; conditions: HEK293 cells, 96-well plates, EGFP mRNA 50 ng per well; percentage of GFP fluorescent cells relative to total number of cells (Hoechst)
In short: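 Each well of HEK293 cells received 50 ng of EGFP mRNA. Efficiency was expressed as percent GFP-expressing cells over Hoechst-defined total cell number.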

cardiomyocytes [4] = test: Screening as DNA vectors in cardiomyocytes; set-up: concentration or dose not given beside the values; conditions: method as Example 4
In short: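 hESC-derived cardiomyocytes in DMEM with 10% FBS were transfected with a GFP DNA vector; Lipofectamine Stem served as positive control. Read-out: percentage of GFP-positive cells relative to total cells counted by Hoechst nuclear stain.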

HEK293 cells [5] = test: Preliminary screening as DNA vectors, GFP transfection of HEK293 cells; conditions: HEK293 cells; lipid/DOPE liposome with 75 ng plasmid DNA (psin-EGFP-IRES-Puro); number of cells expressing GFP divided by total number of nuclei (Hoechst)
In short: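 Lipid + DOPE liposomes (NaOAc, pH 5.6) complexed w/ 75 ng psin-EGFP-IRES-Puro, 30 min RT; added to 3-5×10^4 HEK293/well, 37° C. Hoechst 0.2 μg/mL at 20-24 h, imaged after further 20-24 h. Efficiency = GFP+ cells / total nuclei.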

MCF7 cells [6] = test: Transfection of MCF7 cell line, DNA vectors; set-up: concentration or dose not given beside the values; conditions: plasmid DNA, GFP cells / total cells
In short: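 Read-out: GFP-positive cells as % of all Hoechst-stained nuclei after 96-well transfection of MCF7 cells grown in serum-supplemented DMEM. Positive control was Lipofectamine2000, used per manufacturer's protocol.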

Hela cells [7] = test: Transfection of Hela cell line, mRNA vectors; conditions: 50 ng EGFP mRNA per well
In short: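 Transfection efficiency was scored as GFP-fluorescent cells over Hoechst-stained total nuclei, with Lipofectamine2000 as reference reagent. Each well of HeLa cells, grown in DMEM plus 10% FBS, received 50 ng EGFP mRNA.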

MCF7 cells [8] = test: Transfection of MCF7 cell line, mRNA vectors; conditions: 50 ng EGFP mRNA per well
In short: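 Efficiency was scored as the fraction of GFP-fluorescent cells over all Hoechst-counted cells after delivery of 50 ng EGFP mRNA per well. Cells were MCF7 grown in serum-supplemented DMEM, and Lipofectamine2000 served as reference.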

cardiomyocytes [9] = test: Screening as mRNA vectors in cardiomyocytes; conditions: 50 ng EGFP mRNA per well
In short: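 Cardiomyocytes differentiated from hESC, in DMEM with 10% FBS, were transfected with 50 ng EGFP mRNA per well. The read-out was GFP-positive cells as a percentage of Hoechst-stained nuclei, with Lipofectamine Stem as positive control.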

[10] = tested on: embryonic stem cells (hESC2); test: Screening as DNA vectors in embryonic stem cells, flow cytometry; conditions: 75 ng plasmid DNA, 48 hours after transfection, flow cytometer
In short: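 hESC2 cells in mTeSR1 on matrigel transfected with 75 ng pSin-EGFP-IRES-Puro complexed with amino lipid/DOPE liposomes formed in sodium acetate pH 5.6; 37 °C, 5% CO2. After 48 h, GFP-positive cells counted by flow cytometry (≥2000 cells), efficiency also expressed relative to Lipofectamine Stem.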

Row | Structure (SMILES) | Absolute mRNA transfection efficiency in embryonic stem cells [1] [%] | Absolute DNA transfection efficiency in Hela cells (Hela cells [2]) [%] | Absolute mRNA transfection efficiency in HEK293 cells (HEK293 cells [3]) [%] | Absolute DNA transfection efficiency in cardiomyocytes (cardiomyocytes [4]) [%] | Absolute DNA transfection efficiency in HEK293 cells (HEK293 cells [5]) [%] | Absolute DNA transfection efficiency in MCF7 cells (MCF7 cells [6]) [%] | Absolute mRNA transfection efficiency in Hela cells (Hela cells [7]) [%] | Absolute mRNA transfection efficiency in MCF7 cells (MCF7 cells [8]) [%] | Absolute mRNA transfection efficiency in cardiomyocytes (cardiomyocytes [9]) [%] | Absolute DNA transfection efficiency in embryonic stem cells [10] [%]
1 | CCCCCCCCCCCCSc1nc(NCCN2CCCC2)nc(SCCCCCCCCC)n1 [Compound S9S12D3] | 21.4 | 2.4 | 5.3 | 2.7 | 4.9 | 3.0 | 2.4 | 6.5 | 65.7 | 5.3
2 | CCCCCCCCCCCCSc1nc(NCCN2CCN(C)CC2)nc(SCCCCCCCCC)n1 [Compound S9S12D5] | 27.3 | 10.8 | 57.5 | 1.7 | 21.0 | 32.0 | 10.8 | 27.3 | 1.2 | 4.6
3 | CCCCCCCCCCCCSc1nc(NCCCN(C)C)nc(SCCCCCCCCC)n1 [Compound S9S12D6] | 9.3 | 10.9 | 61.6 | 3.3 | 20.2 | 34.2 | 10.9 | 50.4 | 9.5 | 10.5
4 | CCCCCCCCCCCCSc1nc(NCCCN2CCOCC2)nc(SCCCCCCCCC)n1 [Compound S9S12D8] | 1.7 | 15.8 | 13.8 | 5.8 | 30.4 | 7.7 | 15.8 | 12.6 | 0.9 | 11.1
5 | CCCCCCCCCCCCSc1nc(NCCCN2CCN(C)CC2)nc(SCCCCCCCCC)n1 [Compound S9S12D9] | 20.6 | 19.6 | 60.9 | 5.9 | 39.3 | 33.8 | 19.6 | 5.1 | 69.3 | 7.6
6 | CCCCCCCCCCCCSc1nc(NCC2CCN(C)CC2)nc(SCCCCCCCCC)n1 [Compound S9S12D10] | 25.4 | 8.9 | 82.9 | 2.9 | 17.9 | 46.0 | 8.9 | 40.9 | 3.8 | 14.0
7 | CCCCCCCCCCCCCCSc1nc(NCCN2CCCC2)nc(SCCCCCCCCC)n1 [Compound S9S14D3] | 19.7 | 2.4 | 2.3 | 0.5 | 5.1 | 1.3 | 2.5 | 4.4 | 72.4 | 1.6
8 | CCCCCCCCCCCCCCSc1nc(NCCN2CCN(C)CC2)nc(SCCCCCCCCC)n1 [Compound S9S14D5] | 22.5 | 7.3 | 32.3 | 4.6 | 14.6 | 17.9 | 7.32 | 2.1 | 0.6 | 0.7
9 | CCCCCCCCCCCCCCSc1nc(NCCCN(C)C)nc(SCCCCCCCCC)n1 [Compound S9S14D6] | 1.7 | 9.6 | 80.0 | 10.5 | 19.2 | 44.4 | 9.6 | 12.2 | 8.5 | 2.0
10 | CCCCCCCCCCCCCCSc1nc(NCCCN2CCOCC2)nc(SCCCCCCCCC)n1 [Compound S9S14D8] | 0.3 | 10.8 | 11.6 | 6.1 | 21.0 | 6.4 | 10.8 | 14.8 | 1.0 | 0.7
11 | CCCCCCCCCCCCCCSc1nc(NCCCN2CCN(C)CC2)nc(SCCCCCCCCC)n1 [Compound S9S14D9] | 16.4 | 14.8 | 68.8 | 11.1 | 28.4 | 38.2 | 14.8 | 19.1 | 12.4 | 2.5
12 | CCCCCCCCCCCSc1nc(NCCCCCCCCC)nc(NCC2CCN(C)CC2)n1 [Compound S11N9D10] | 39.3 | 16.2 |  | 16.4 |  | 48.7 | 16.2 | 36.6 | 29.6 | 0.5
